Data: patent US8304439B1, “Use of quaternary pyridinium salts as a therapeutic or preventing agent against ionizing radiation-induced damage” (priority 2007, dated 2012)

What was measured:
murine leukemia L1210 = conditions: cited from earlier work; for cytotoxicity in cultured leukemia cells: comparison among the three salts
[1] = system: male BALB/c mice, whole body irradiation 7.5 Gy; assay: Survival of mice during 30 days following whole body gamma irradiation, compounds given before or after irradiation (Example 2); assay type: in vivo; conditions: 7.5 Gy whole body, from day 7 before or day 7 after irradiation until day 30
Source text: (§1) The survival rate of irradiated mice treated with the compounds in comparison control was used as a measure of a radioprotective effect.
The methodology followed was as described in B Hou. Z. W. Xu, C. W. Yang, Y. Gao, S. F. Zhao, C. G. Zhang: Protective effects of inosine on mice subjected to lethal total-body ionizing irradiation. J Radiat Res 48, 57-62, 2007. In brief, six-to-eight-week old male BALB/c mice obtained from the Nofer Institute of Occupational Medicine, ? ódź, Poland were used for the experiments. Whole bodies of the animals were exposed to a single irradiation (at the Military Institute of Chemistry and Radiometry) with gamma rays from the ^60Co source at 7.2 Gy/h mean dose rate to obtain the absorbed dose of 7.5 Gy per mouse. The absorbed doses were verified using thermoluminescent dosimeters implanted subcutaneously in the middle abdominal region. All the mice were maintained under specific pathogen-free conditions. Survival of the mice was assessed during 30 days following the irradiation.
The mice were divided into irradiated control group receiving no treatment, irradiated treatment group receiving MNA, irradiated treatment group receiving DMP, and irradiated treatment group receiving MAP. Each of the treatment groups was divided into two subgroups, the first group in which the animals received the tested compounds starting from day 7 before the irradiation, and the second group in which the animals received the tested compounds starting from day 7 after the irradiation.
The compounds were given dissolved in drinking water at 100 mg/kg of body weight/24 h (DMP and MAP) and 500 mg/kg of body weight (MNA)/24 h until day 30 post irradiation.

[2] = system: mice irradiated with lethal dose of about 7.5 Gy; assay: Survival rate of mice after whole body irradiation, MNA given before irradiation (Example 1); assay type: in vivo; conditions: whole body irradiation 7.5 Gy; 300 mg/kg per day in drinking water from the 7th day preceding irradiation, continued after; untreated group approximately 20%; FIG. 1
Protocol: as §1
The methodology used was as described by Cheda et al., Radiation Research 2004, 161, 335 (animals and irradiation).
The survival rate of mice irradiated with lethal dose of about 7.5 Gy was tested. The treatment group received 1-methylnicotinamide chloride (MNA) in drinking water at an average dose of 300 mg/kg per day every day starting from the 7th day preceding the irradiation day. The administration was continued after irradiation. The control group received no treatment.

[3] = 100 mg/kg/24 h in drinking water, FIG. 3, FIG. 4

C[n+]1cccc([N+](=O)[O-])c1.[Cl-] [3-nitro-1-methylpyridinium chloride, 1-methyl-3-nitropyridinium chloride, reference compound]
cytotoxicity in cultured leukemia cells (murine leukemia L1210): highest cytotoxicity

Cc1cc[n+](C)cc1.[Cl-] [DMP, 1,4-dimethylpyridinium chloride]
protective activity (survival of mice) [1, 3]: exert their protective activity both when administered prior irradiation and when administered after irradiation

CC(=O)c1ccc[n+](C)c1.[Cl-] [MAP, 1-methyl-3-acetylpyridinium chloride]
protective activity (survival of mice) [1, 3]: exert their protective activity both when administered prior irradiation and when administered after irradiation | cytotoxicity in cultured leukemia cells (murine leukemia L1210): several thousands times lower

C[n+]1cccc(C(N)=O)c1 [MNA, 1-methylnicotinamide chloride]
survival rate of mice [2]: about 50% | protective activity (survival of mice) ([1]; 500 mg/kg/24 h in drinking water, FIG. 2): exert their protective activity both when administered prior irradiation and when administered after irradiation | concentration at which activity was observed (murine leukemia L1210; L1210 cells): observed only at very high concentration | cytotoxicity in cultured leukemia cells (murine leukemia L1210): several thousands times lower
